Tests used:
[1] = molecular target: T1, mTOR (Homo sapiens, UniProt P42345); assay: mTOR kinobeads assay (competitive binding in Jurkat cell lysate, immunodetection); conditions: kinobeads assay, Table 6; read-out: Inhibition values (IC50) mTOR
T1 construct: endogenous in cells; host or cells: Jurkat, clone E6-1 (ATCC TIB-152) cell lysate
Protocol: The compounds of the present invention as described were tested in the mTOR kinobeads assay as described below. […] After the incubation time the beads with captured proteins were separated from the lysate. Bound proteins were then eluted and the presence of mTOR, PI3K delta (PI3 Kd) and DNA-dependent protein kinase (DNA-PK) was detected and quantified using a specific antibody in a dot blot procedure and the Odyssey infrared detection system.
(§1) The kinobeads assay was performed as a competitive binding assay in which test compounds were added directly into a cell lysate. Test compounds (at various concentrations) and the affinity matrix (beads with immobilized phenylmorpholin-chromen ligand) were added to cell lysate aliquots and allowed to bind to the proteins contained in the lysate sample. After the incubation time the beads with captured proteins were separated from the lysate. Bound proteins were then eluted and the presence of kinases was detected and quantified using a multiplexed immunodetection format. Dose response curves for individual kinases were generated and IC50 values calculated.
(§2) 5×DP buffer: 250 mM Tris-HCl pH 7.4, 25% Glycerol, 7.5 mM MgCl2, 750 mM NaCl, 5 mM Na3VO4, filter the 5×-lysis buffer through 0.22 μm filter and store in aliquots at −80° C. The 5×DP buffer is diluted to 1×DP buffer containing 1 mM DTT and 25 mM NaF.
(§3) Stock solutions of test compounds were prepared in DMSO. In a 96 well plate 30 μl solution of diluted test compounds at 5 mM in DMSO were prepared. Starting with this solution a 1:3 dilution series (9 steps) was prepared. For control experiments (no test compound) a buffer containing 2% DMSO was used.
Jurkat cells were homogenized in a Potter S homogenizer in lysis buffer: 50 mM Tris-HCl, 0.8% NP40, 5% glycerol, 150 mM NaCl, 1.5 mM MgCl2, 25 mM NaF, 1 mM sodium vanadate, 1 mM DTT, pH 7.5. […] The material was dounced 10 times using a mechanized POTTER S, transferred to 50 ml falcon tubes, incubated for 30 minutes on ice and spun down for 10 min at 20,000 g at 4° C. (10,000 rpm in Sorvall SLA600, precooled). […] (33.500 rpm in Ti50.2, precooled). The supernatant was transferred again to a fresh 50 ml falcon tube, the protein concentration was determined by a Bradford assay (BioRad) and samples containing 50 mg of protein per aliquot were prepared. The samples were immediately used for experiments or frozen in liquid nitrogen and stored frozen at −80° C.
Jurkat cell lysate (approximately 50 mg protein per plate) was thawed in a water bath at room temperature and then kept on ice. […] The diluted cell lysate was stored on ice.
Plates were sealed and incubated for two hours in a cold room on a Thermoxer with shaking (750 rpm). Afterwards the plate was washed twice with 230 μl washing buffer (1×DP 0.4% NP40). […] The eluate was frozen quickly at −80° C. and stored at −20° C.
The kinases in the eluates were detected and quantified by spotting on Nitrocellulose membranes and using a first antibody directed against the kinase of interest and a fluorescently labeled secondary antibody (anti-mouse or anti-rabbit IRDye™ antibodies from Rockland).
Afterwards the membrane was washed three times for 10 minutes with PBS buffer containing 0.1% Tween 20 at room temperature. […] Afterwards the membrane was washed three times for 10 minutes each with 1×PBS buffer containing 0.1% Tween 20 at room temperature. Then the membrane was rinsed once with PBS buffer to remove residual Tween 20. The membrane was kept in PBS buffer at 4° C. and then scanned with the Odyssey instrument. Fluorescence signals were recorded and analysed according to the instructions of the manufacturer.

[2] = molecular target: T2, PI3K delta (PI3 Kd) (Homo sapiens, UniProt O00329); assay: kinobeads assay, PI3K delta; type: binding; conditions: kinobeads assay, Table 6; read-out: Inhibition values (IC50) PI3Kd
T2 construct: endogenous in cells; host or cells: Jurkat, clone E6-1 (ATCC TIB-152) cell lysate
Protocol: (§4) The compounds of the present invention as described were tested in the mTOR kinobeads assay as described below. Briefly, test compounds (at various concentrations) and the affinity matrix with the immobilized phenylmorpholin-chromen ligand (8-(4-aminomethyl-phenyl)-2-morpholin-4-yl-chromen-4-one) were added to cell lysate aliquots and allowed to bind to the proteins in the lysate sample. After the incubation time the beads with captured proteins were separated from the lysate. Bound proteins were then eluted and the presence of mTOR, PI3K delta (PI3 Kd) and DNA-dependent protein kinase (DNA-PK) was detected and quantified using a specific antibody in a dot blot procedure and the Odyssey infrared detection system. Kinobeads assays for PI3K (WO-A 2008/015013) and for kinase selectivity profiling (WO 2006/134056) have been previously described.
as §1
(§5) The affinity matrix (beads with immobilized phenylmorpholin-chromen ligand) was washed two times with 15 ml of 1×DP buffer containing 0.2% NP40 (IGEPAL® CA-630, Sigma, #13021) and then resupended in 5.5 ml of 1×DP buffer containing 0.2% NP40 (10% beads slurry).
as §2
as §3, with “used. Compound CZC00018052 served as a positive control (PI-103; Calbiochem catalogue number 528100).” for “used.”
(§6) Jurkat cells (ATCC catalogue number TIB-152 Jurkat, clone E6-1) were grown in 1 liter Spinner flasks (Integra Biosciences, #182101) in suspension in RPMI 1640 medium (Invitrogen, #21875-034) supplemented with 10% Fetal Bovine Serum (Invitrogen) at a density between 0.15×10^6 and 1.2×10^6 cells/ml. Cells were harvested by centrifugation, washed once with 1×PBS buffer (Invitrogen, #14190-094) and cell pellets were frozen in liquid nitrogen and subsequently stored at −80° C.
(§7) Jurkat cells were homogenized in a Potter S homogenizer in lysis buffer: 50 mM Tris-HCl, 0.8% NP40, 5% glycerol, 150 mM NaCl, 1.5 mM MgCl2, 25 mM NaF, 1 mM sodium vanadate, 1 mM DTT, pH 7.5. One complete EDTA-free tablet (protease inhibitor cocktail, Roche Diagnostics, 1873580) per 25 ml buffer was added. The material was dounced 10 times using a mechanized POTTER S, transferred to 50 ml falcon tubes, incubated for 30 minutes on ice and spun down for 10 min at 20,000 g at 4° C. (10,000 rpm in Sorvall SLA600, precooled). The supernatant was transferred to an ultracentrifuge (UZ)-polycarbonate tube (Beckmann, 355654) and spun for 1 hour at 100.000 g at 4° C. (33.500 rpm in Ti50.2, precooled). The supernatant was transferred again to a fresh 50 ml falcon tube, the protein concentration was determined by a Bradford assay (BioRad) and samples containing 50 mg of protein per aliquot were prepared. The samples were immediately used for experiments or frozen in liquid nitrogen and stored frozen at −80° C. […]

[3] = molecular target: T3, DNA-dependent protein kinase (DNA-PK) (Homo sapiens, UniProt P78527); assay: kinobeads assay, DNA-PK; type: binding; conditions: kinobeads assay, Table 6; read-out: Inhibition values (IC50) DNAPK
T3 construct: endogenous in cells; host or cells: Jurkat, clone E6-1 (ATCC TIB-152) cell lysate
T3 sequence (P78527 whole entry): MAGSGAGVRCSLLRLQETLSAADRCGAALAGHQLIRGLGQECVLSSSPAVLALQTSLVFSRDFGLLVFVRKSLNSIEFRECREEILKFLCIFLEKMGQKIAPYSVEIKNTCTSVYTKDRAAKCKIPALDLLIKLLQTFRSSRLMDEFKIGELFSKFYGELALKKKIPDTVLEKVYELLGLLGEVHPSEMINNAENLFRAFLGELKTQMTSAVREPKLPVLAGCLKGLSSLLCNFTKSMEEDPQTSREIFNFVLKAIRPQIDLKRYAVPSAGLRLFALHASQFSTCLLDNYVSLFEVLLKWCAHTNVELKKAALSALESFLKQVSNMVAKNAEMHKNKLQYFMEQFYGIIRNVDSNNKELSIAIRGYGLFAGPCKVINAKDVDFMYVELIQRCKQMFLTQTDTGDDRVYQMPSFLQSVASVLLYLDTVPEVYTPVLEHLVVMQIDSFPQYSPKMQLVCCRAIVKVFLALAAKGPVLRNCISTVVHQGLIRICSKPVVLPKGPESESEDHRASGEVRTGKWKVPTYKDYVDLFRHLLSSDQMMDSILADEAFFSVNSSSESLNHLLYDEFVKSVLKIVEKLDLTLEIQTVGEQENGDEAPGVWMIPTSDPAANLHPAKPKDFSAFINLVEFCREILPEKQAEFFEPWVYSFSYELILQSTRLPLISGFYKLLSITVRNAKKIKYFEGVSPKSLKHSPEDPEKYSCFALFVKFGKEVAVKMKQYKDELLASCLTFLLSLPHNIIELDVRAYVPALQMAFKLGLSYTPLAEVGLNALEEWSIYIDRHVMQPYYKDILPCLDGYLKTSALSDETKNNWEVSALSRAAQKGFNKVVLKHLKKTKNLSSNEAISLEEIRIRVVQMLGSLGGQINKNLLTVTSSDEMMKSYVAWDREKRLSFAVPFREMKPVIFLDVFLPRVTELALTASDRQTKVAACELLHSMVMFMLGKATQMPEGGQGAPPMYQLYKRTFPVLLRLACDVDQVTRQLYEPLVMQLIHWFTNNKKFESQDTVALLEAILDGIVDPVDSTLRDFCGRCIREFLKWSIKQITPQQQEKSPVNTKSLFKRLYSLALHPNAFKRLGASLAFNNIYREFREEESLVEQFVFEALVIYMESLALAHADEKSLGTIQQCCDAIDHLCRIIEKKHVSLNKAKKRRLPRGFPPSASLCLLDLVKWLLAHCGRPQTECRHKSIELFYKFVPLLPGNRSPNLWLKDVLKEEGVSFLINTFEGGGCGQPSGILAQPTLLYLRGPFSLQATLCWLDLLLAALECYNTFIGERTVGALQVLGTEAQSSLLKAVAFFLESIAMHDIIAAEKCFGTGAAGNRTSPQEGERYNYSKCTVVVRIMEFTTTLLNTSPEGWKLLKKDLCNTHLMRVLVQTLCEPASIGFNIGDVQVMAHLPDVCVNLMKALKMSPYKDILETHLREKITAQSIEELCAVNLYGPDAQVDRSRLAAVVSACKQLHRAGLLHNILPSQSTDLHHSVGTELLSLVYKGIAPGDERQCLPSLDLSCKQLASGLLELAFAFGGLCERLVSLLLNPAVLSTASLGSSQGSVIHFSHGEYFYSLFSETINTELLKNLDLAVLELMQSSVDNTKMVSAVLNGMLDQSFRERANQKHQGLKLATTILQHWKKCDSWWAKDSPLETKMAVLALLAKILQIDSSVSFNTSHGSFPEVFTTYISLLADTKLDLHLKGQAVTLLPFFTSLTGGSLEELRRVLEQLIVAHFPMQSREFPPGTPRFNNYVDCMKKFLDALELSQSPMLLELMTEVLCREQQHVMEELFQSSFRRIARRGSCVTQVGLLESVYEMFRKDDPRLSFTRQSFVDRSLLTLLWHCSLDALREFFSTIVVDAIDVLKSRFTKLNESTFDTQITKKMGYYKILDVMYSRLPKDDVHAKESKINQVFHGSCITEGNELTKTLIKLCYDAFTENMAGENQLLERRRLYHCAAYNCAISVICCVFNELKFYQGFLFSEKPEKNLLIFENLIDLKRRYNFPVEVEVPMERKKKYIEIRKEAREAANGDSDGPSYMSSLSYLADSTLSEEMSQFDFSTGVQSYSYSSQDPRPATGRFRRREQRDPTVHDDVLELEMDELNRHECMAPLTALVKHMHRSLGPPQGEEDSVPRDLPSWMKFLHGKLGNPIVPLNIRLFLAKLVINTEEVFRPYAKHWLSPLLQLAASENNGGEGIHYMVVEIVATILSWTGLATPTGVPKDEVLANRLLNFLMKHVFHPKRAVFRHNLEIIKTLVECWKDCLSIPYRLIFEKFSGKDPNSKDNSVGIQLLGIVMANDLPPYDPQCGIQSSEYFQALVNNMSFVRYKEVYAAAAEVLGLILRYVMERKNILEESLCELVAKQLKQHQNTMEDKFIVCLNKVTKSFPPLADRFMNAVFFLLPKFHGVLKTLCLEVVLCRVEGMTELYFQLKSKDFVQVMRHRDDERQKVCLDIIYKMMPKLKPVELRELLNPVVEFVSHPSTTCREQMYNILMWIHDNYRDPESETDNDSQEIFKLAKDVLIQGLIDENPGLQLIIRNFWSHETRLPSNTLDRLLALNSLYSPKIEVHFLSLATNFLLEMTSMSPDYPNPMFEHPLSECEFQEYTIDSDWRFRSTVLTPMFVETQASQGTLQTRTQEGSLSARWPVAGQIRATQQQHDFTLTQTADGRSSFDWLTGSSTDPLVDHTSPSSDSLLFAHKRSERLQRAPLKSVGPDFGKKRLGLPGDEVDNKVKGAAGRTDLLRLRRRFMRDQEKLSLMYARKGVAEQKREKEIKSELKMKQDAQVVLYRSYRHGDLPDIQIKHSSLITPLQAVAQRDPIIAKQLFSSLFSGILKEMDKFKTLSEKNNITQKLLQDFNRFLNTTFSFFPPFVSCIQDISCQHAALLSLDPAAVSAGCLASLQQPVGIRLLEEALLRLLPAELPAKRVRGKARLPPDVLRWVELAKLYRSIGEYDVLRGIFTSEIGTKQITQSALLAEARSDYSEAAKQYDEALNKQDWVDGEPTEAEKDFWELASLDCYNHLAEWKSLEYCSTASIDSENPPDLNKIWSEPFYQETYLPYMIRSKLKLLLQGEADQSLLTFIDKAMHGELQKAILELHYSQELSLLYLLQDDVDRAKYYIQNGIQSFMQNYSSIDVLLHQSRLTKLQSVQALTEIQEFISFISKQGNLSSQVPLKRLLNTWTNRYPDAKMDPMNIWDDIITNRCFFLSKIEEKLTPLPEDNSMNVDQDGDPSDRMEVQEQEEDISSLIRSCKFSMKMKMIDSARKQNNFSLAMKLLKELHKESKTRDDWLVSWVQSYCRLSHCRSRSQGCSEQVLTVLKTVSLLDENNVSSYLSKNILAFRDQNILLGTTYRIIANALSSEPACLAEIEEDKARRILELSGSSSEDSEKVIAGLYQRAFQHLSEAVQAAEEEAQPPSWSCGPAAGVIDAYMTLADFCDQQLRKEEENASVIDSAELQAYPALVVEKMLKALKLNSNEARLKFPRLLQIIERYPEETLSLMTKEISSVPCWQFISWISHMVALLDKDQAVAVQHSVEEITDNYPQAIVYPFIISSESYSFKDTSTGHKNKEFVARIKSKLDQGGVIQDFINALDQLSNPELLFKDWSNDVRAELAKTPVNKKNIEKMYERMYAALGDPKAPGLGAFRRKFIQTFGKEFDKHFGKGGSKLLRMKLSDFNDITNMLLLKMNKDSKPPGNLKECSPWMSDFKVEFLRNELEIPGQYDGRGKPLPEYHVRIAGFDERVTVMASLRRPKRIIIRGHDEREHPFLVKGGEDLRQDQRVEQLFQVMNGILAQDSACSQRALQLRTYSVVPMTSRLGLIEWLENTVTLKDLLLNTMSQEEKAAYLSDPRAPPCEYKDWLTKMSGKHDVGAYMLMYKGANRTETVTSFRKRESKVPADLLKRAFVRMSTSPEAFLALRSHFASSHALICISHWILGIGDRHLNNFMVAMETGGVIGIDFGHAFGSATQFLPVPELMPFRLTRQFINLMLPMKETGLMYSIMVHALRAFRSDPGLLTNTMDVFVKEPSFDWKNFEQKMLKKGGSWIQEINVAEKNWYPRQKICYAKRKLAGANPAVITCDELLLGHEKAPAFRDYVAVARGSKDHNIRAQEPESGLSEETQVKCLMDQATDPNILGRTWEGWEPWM
Protocol: as §4, §1, §5, §2
as §3, with “used. Compound CZC00018052 served as a positive control (PI-103; Calbiochem catalogue number 528100).” for “used.”
as §6, §7

[4] = molecular target: T4, PI3Kalpha (PI3Ka) (Homo sapiens, UniProt P42336); assay: kinobeads assay, PI3Kalpha; type: binding; conditions: kinobeads assay, Table 6; for IC50: read-out: Inhibition values (IC50) PI3Ka
T4 construct: endogenous in cells; host or cells: cell lysate
Protocol: as §1
(§8) The effect of the compounds on the kinases PI3Kalpha (PI3Ka), PI3 Kbeta (PI3 Kb) and PI3 Kgamma (PI3 Kg) were tested in the kinobeads assay as described (WO-A 2009/098021).

[5] = molecular target: T5, PI3 Kbeta (PI3 Kb) (Homo sapiens, UniProt P42338); assay: kinobeads assay, PI3Kbeta; type: binding; conditions: kinobeads assay, Table 6; read-out: Inhibition values (IC50) PI3Kb
T5 construct: endogenous in cells; host or cells: cell lysate
Protocol: as §1, §8

[6] = molecular target: T6, PI3 Kgamma (PI3 Kg) (Homo sapiens, UniProt P48736); assay: kinobeads assay, PI3Kgamma; type: binding; conditions: kinobeads assay, Table 6; read-out: Inhibition values (IC50) PI3Kg
T6 construct: endogenous in cells; host or cells: cell lysate
Protocol: as §1, §8

Structure (SMILES) | IC50 [1] [µM] | IC50 [2] [µM] | IC50 [3] [µM] | Inhibition values (IC50) PI3Ka [4] | IC50 [5] [µM] | IC50 [6] [µM] | IC50 [4] [µM]
CCNC(=O)Nc1ccc(-c2nc3c(c(N4CCOC[C@@H]4C)n2)CN(C2CCN(C(C)=O)CC2)C3)cc1F [Example 117, (S)-1-(4-(6-(1-acetylpiperidin-4-yl)-4-(3-methylmorpholino)-6,7-dihydro-5H-pyrrolo[3,4-d]pyrimidin-2-yl)-2-fluorophenyl)-3-ethylurea] | 0.1 to 1 | > 10 | > 10 | D (D >10 μM) | > 10 | > 10 | 
CCOC(=O)N1Cc2nc(-c3ccc(NC(=O)Nc4cccnc4)cc3)nc(N3CCOC[C@@H]3C)c2C1 [Example 118, (S)-ethyl 4-(3-methylmorpholino)-2-(4-(3-(pyridin-3-yl)ureido)phenyl)-5H-pyrrolo[3,4-d]pyrimidine-6(7H)-carboxylate] | 0.1 to 1 | > 10 | > 10 | D (D >10 μM) | > 10 | > 10 | 
CCOC(=O)N1Cc2nc(-c3ccc(NC(=O)Nc4ccc(CO)cc4)cc3)nc(N3CCOC[C@@H]3C)c2C1 [Example 119, (S)-ethyl 2-(4-(3-(4-(hydroxymethyl)phenyl)ureido)phenyl)-4-(3-methylmorpholino)-5H-pyrrolo[3,4-d]pyrimidine-6(7H)-carboxylate] | 0.1 to 1 | > 10 | > 10 | D (D >10 μM) | > 10 | > 10 | 
CCNC(=O)Nc1ccc(-c2nc3c(c(N4CCOC[C@@H]4C)n2)CN(C(=O)C2CCN(C(C)=O)CC2)C3)cc1F [Example 123, (S)-1-(4-(6-(1-acetylpiperidine-4-carbonyl)-4-(3-methylmorpholino)-6,7-dihydro-5H-pyrrolo[3,4-d]pyrimidin-2-yl)-2-fluorophenyl)-3-ethylurea] | 0.1 to 1 | > 10 | > 10 | D (D >10 μM) | > 10 | > 10 | 
CCOC(=O)N1Cc2nc(-c3ccc(NC(=O)NCCNC(C)=O)cc3)nc(N3CCOC[C@@H]3C)c2C1 [Example 124, (S)-ethyl 2-(4-(3-(2-acetamidoethyl)ureido)phenyl)-4-(3-methylmorpholino)-5H-pyrrolo[3,4-d]pyrimidine-6(7H)-carboxylate] | 0.1 to 1 | 1 to 10 | > 10 |  | > 10 | > 10 | 1 to 10
CCOC(=O)N1Cc2nc(-c3ccc(NC(=O)NCC(=O)NC)cc3)nc(N3CCOC[C@@H]3C)c2C1 [Example 125, (S)-ethyl 2-(4-(3-(2-(methylamino)-2-oxoethyl)ureido)phenyl)-4-(3-methylmorpholino)-5H-pyrrolo[3,4-d]pyrimidine-6(7H)-carboxylate] | 0.1 to 1 | 0.1 to 1 | > 10 | B (B >0.1 μM < 1 μM) | 1 to 10 | 1 to 10 | 
CCNC(=O)Nc1ccc(-c2nc3c(c(N4CCOC[C@@H]4C)n2)CN(C(=O)C2CCNCC2)C3)cc1F [Example 126, (S)-1-ethyl-3-(2-fluoro-4-(4-(3-methylmorpholino)-6-(piperidine-4-carbonyl)-6,7-dihydro-5H-pyrrolo[3,4-d]pyrimidin-2-yl)phenyl)urea] | 0.1 to 1 | > 10 | > 10 | D (D >10 μM) | 1 to 10 | > 10 | 

The next lines start with the values.

IC50 [1] [µM] | IC50 [2] [µM] | IC50 [3] [µM] | Inhibition values (IC50) PI3Ka [4] | IC50 [5] [µM] | IC50 [6] [µM] | IC50 [4] [µM] | Structure (SMILES)
0.1 to 1 | > 10 | > 10 | D (D >10 μM) | > 10 | > 10 |  | CCOC(=O)N1Cc2nc(-c3ccc(NC(=O)NCC(=O)O)cc3)nc(N3CCOC[C@@H]3C)c2C1 [Example 115, (S)-2-(3-(4-(6-(ethoxycarbonyl)-4-(3-methylmorpholino)-6,7-dihydro-5H-pyrrolo[3,4-d]pyrimidin-2-yl)phenyl)ureido)acetic acid]
0.1 to 1 | > 10 | > 10 |  | > 10 | > 10 | 1 to 10 | CCNC(=O)Nc1cnc(-c2nc3c(c(N4CCOC[C@@H]4C)n2)CN(C(=O)OCC)C3)cn1 [Example 116, (S)-ethyl-2-(5-(3-ethylureido)pyrazin-2-yl)-4-(3-methylmorpholino)-5H-pyrrolo[3,4-d]pyrimidine-6(7H)-carboxylate]
< 0.1 | 1 to 10 | > 10 |  | 1 to 10 | > 10 | 1 to 10 | C[C@H]1COCCN1c1nc(-c2ccc(NC(=O)NC3CC3)cc2)nc2c1CN(CC1CCNCC1)C2 [Example 130, (S)-1-cyclopropyl-3-(4-(4-(3-methylmorpholino)-6-(piperidin-4-ylmethyl)-6,7-dihydro-5H-pyrrolo[3,4-d]pyrimidin-2-yl)phenyl)urea]

— US8785457B2 (Cellzome Limited, priority 2009, dated 2014)
